“And” between values parts separate entries of the source, which are not always exact repeats. Identical values can stand only once. Where only a bound is given, the exact number is not on record here.

For data set [1], the system named is RPMI-8226 cells. Kind of data set: GI50 assay, MTT cell proliferation. The data set is classed as cell-based, human. As to the method:
RPMI-8226 cells were grown in 96 well plates for 24 h prior to addition of 2-methoxy antimycins. Antimycin stocks in dimethyl sulfoxide (DMSO) were serially diluted in RPMI. Cells were incubated for 48 h with compounds at final compound concentrations ranging from 10^−4 to 10^−8 M. MTT cell proliferation assays were performed in quadruplicate and percent growth inhibitions were calculated as (A570 (control cells)-A570 (treated cells))/A570 (control cells). GI50 was extrapolated from semi-log plots of the dose response for each compound. […] After 72 h drug exposures, 1 μCi/ml [^3H]-thymidine was added to wells. Cells were incubated for an additional 24 h, and then transferred to GF/C filter plates (Packard) using a plate washer. Filters were dried, added to scintillant, and counted in a TopCount® scintillation counter (Packard). Drug response is expressed as the percentage of vehicle-treated controls, and each value shown is the average of three determinations.

Data set [2] has as its system RPMI-8226 cells. In words: Combined cytotoxicity with standard anticancer agents. It is filed as cell-based, human. To be noted: suboptimal combinations, 24 h. Here is the method:
Concentrations of standard chemotherapeutic agents were adjusted to achieve <20% cell death as single agents over 24 h treatments. Cells treated with 20 μg/ml 2-OMe antimycin A1 and indicated concentrations of etoposide, melphalan or daunorubicin. Predicted viability at 24 h is derived from additive cytotoxicity of single agents (open symbols). Observed viability for combination (closed symbols). Each symbol represents separate experiment. Viabilities (PI-negative) are normalized to untreated cells.

For data set [3], the system named is NOD/SCID mice. Kind of data set: In vivo toxicity, intravenous dosing. Here is the method: (§1) 2-OMe antimycin A1 was synthesized from antimycin A1 (Sigma) and dissolved in phosphate-buffered saline with 20% Cremaphor, 25% ethanol (3 mg/ml) for parenteral administration by tail vein injection in a total volume of 100 μl. Control mice received injections of Cremaphor/ethanol vehicle.
(§2) To determine whether 2-OMeAA1 has anti-tumor activity in vivo, a total of 12 NOD/SCID mice in three experiments were inoculated with 3×10^7 RPMI-8226 human myeloma cells by interscapular subcutaneous injection. […] In total, six mice received three intravenous doses of 10 mg/kg 2-OMeAA1 on alternate days starting on day 6. Six control mice received injections of Cremaphor/ethanol vehicle without drug.

A short description of data set [4]: LC/MS analyses of plasma after administration. The data set is classed as in vivo, mice. As to conditions: preliminary LC/MS analyses.
The test system of data set [5] is RPMI-8226 human myeloma cells. In words: RPMI-8226 myeloma tumor xenografts. As to the method: Six to nine-week old Nod/Les2 Scid/J mice were inoculated with 3×10^7 RPMI-8226 cells by interscapular subcutaneous injection. Mice were maintained under specific pathogen-free conditions. Palpable tumor nodules were measured in two dimensions with calipers and tumor volumes calculated in mm^3 as (length×width^2)/2. Blood samples were collected by retro-orbital bleed for human light chain measurements by ELISA with lambda-specific antibody and horseradish peroxidase detection (BD Biosciences). Animals were sacrificed by halothane inhalation, and histologic examination of tumors and internal organs was performed. All experiments were approved by the Fred Hutchinson Cancer Research Center Institutional Animal Care and Use Committee.
as §1
Tissues were fixed in 10% buffered formalin, embedded in paraffin, sectioned and stained with hematoxylin and eosin. TUNEL staining was performed using 0.3 units/ml terminal deoxynucleotidyl transferase and biotinylated dATP with development by avidin-biotin peroxidase method. Bcl-xL immunohistochemistry was performed using anti-Bcl-xL antibody (BD Biosciences) followed by biotinylated secondary antibody and peroxidase-labeled ABC reagent (Vector, Burlingame Calif.).
as §2

Data set [6] deals with T1, Bcl-xL(ΔC) WT (Homo sapiens, UniProt Q07817).
T1 construct: inferred from pET22b(+) NdeI/XhoI cloning and nickel-NTA purification) (C); made in house; host or cells: Escherichia coli BL21(DE3) carrying pUB520
Kind of data set: Pore assay, calcein release from large unilamellar vesicles. It is filed as biochemical. As to the method:
Large unilamellar vesicles composed of 60% dioleoylphophatidylcholine and 40% dioleoylphosphatidylglycerol were prepared by the extrusion method of Mayer et al., supra. Lipid stocks, in chloroform, were mixed and dried under a stream of nitrogen gas. The lipid was resuspended by vortexing for 30 min in a solution of 40 mM calcein (Molecular Probes), 25 mM KCl, and 10 mM KOAc, pH 5.0. After 10 freeze-thaw cycles, the lipid suspension was extruded through two 0.1 μm pore diameter Nucleopore filters. Non-entrapped dye was removed by passage over a Sephadex G10 column (Amersham Biosciences). Lipid concentration was measured using the ammonium ferrothiocyanate method (Stewart, Anal. Biochem. 104:10-14, 1980).
For pore assays, recombinant truncated Bcl-2 family protein or mutant protein (Bcl-xL(ΔC)) (500 nM) was added to large unilamellar vesicles (60 μM lipid concentration) in 100 mM KCl, 10 mM KOAc, pH 5.0, and fluorescence measured (490 nm excitation, 520 nm emission) with a Fluoromax-3 spectrophotometer. Peptides of the BH3 domain were incubated with the Bcl-xL(ΔC) 5 min prior to mixing with liposomes. AA1 was added to liposomes 1 min before adding the Bcl-xL(ΔC) protein. Samples for kinetic assays were analyzed in a thermostatted cuvette at 37° C. with constant stirring. Dose responses were measured in black quartz microplates (Hellma) at room temperature. Calcein release was expressed as percentage of maximum release with detergent lysis (0.1% Triton X-100).

Data set [7] concerns TAMH cells over-expressing Bcl-xL A142L. Kind of data set: STS and antimycin toxicity, Alamar Blue viability. It is filed as cell-based, murine. To be noted: for LD50: 24 h treatment. Here is the method: (§3) TAMH cells were transfected with DNA encoding each of the mutant Bcl-xL proteins by lipofection (See Example 1 for method). For analysis of Bcl-xL expression, 20 μg of cell protein was separated by 20% SDS-PAGE and transferred to nitrocellulose membranes. Immunodetection of Bcl-xL was carried out using rabbit anti-Bcl-xL antibody and Protein A/horseradish peroxidase conjugate, followed by chemiluminescent detection. Cells were grown to about 80% confluence in 96-well plates followed by addition of 100 μl of 2×AA1 or staurosporine (STS) solution in complete medium. STS is a natural product originally isolated from the bacterium Streptomyces and found to be capable of inducing apoptosis in certain cells and which induction of apoptosis could be blocked by the expression of a Bcl-2 family protein. Cell viability was determined spectrophotometrically after 24 h treatment as the ratio of reduced and oxidized Alamar Blue (BIOSOURCE) at 570 nm and 600 nm, respectively. All results were normalized against DMSO controls. LD50 values were calculated by non-linear regression analysis using Prism software (Graphpad).
(The colour change of resazurin is a common sign of viable cells or microbes.)

The test system of data set [8] is TAMH cells over-expressing Bcl-xL F146L. Kind of data set: STS and antimycin toxicity, Alamar Blue viability. The data set is classed as cell-based, murine. As to conditions: for LD50: 24 h treatment. As to the method:
as §3

The test system of data set [9] is TAMH cells over-expressing Bcl-xL F97W. In words: STS and antimycin toxicity, Alamar Blue viability. It is filed as cell-based, murine. To be noted: 24 h treatment. Here is the method:
as §3

The test system of data set [10] is TAMH cells over-expressing Bcl-xL E92L. In words: STS and antimycin toxicity, Alamar Blue viability. The data set is classed as cell-based, murine. To be noted: 24 h treatment. As to the method: as §3
Data set [11] relates to TAMH cells over-expressing Bcl-xL WT. Kind of data set: STS and antimycin toxicity, Alamar Blue viability. It is filed as cell-based, murine. As to conditions: 24 h treatment. As to the method: as §3
Data set [12] concerns the target T2, Bcl-xL(ΔC) F97W (Homo sapiens, UniProt Q07817, F97W).
T2 construct: inferred from pET22b(+) NdeI/XhoI cloning and nickel-NTA purification) (C); made in house; host or cells: Escherichia coli BL21(DE3) carrying pUB520
Kind of data set: Fluorescence anisotropy binding. As to the method:
(§4) A pET22b (Novagen) vector coding for Bcl-xL(ΔC), a mutant Bcl-xL protein without the COOH terminal region, was transformed into Escherichia coli BL21(DE3) cells that carried pUB520 (encoding human Arg tRNA) and grown to an A600 of 0.6. Protein expression was induced with 0.1 mM isopropyl β-D-thiogalactoside at 30° C. The cells were resuspended 1:5 (w/v) in PEB buffer (50 mM Tris, pH 8.0, 200 mM NaCl, 0.2 mM phenylmethylsulfonyl fluoride, 5 mM β-mercaptoethanol, 5 mM imidazole, and 1% (v/v) glycerol), and stirred for 20 min at 4° C. Cells were disrupted by pulse sonication, and the soluble fraction was loaded onto a nickel-nitrilotriacetic acid column (Qiagen) equilibrated with PEB buffer. The column was washed with 40 mM imidazole, eluted with 200 mM imidazole, and the protein fractions were pooled and dialyzed (50 mM Tris, pH 8.0, 200 mM NaCl, 0.2 mM phenylmethylsulfonyl fluoride) at 4° C. overnight. The dialyzed protein was concentrated to 10 mg/ml and fractionated on a Superdex 75 gel filtration column (Amersham Biosciences). The fractions containing Bcl-xL(ΔC) protein were pooled, exchanged into low-salt buffer (same as for previous dialysis buffer, except 50 mM NaCl), and loaded onto a MonoQ anion exchange column (Amersham Biosciences). Protein was eluted from the column with increasing NaCl gradient, pooled and concentrated.
(§5) All reagents were prepared in 0.2 μm-filtered PBS with fresh 1 mM DTT. […] Slit widths were set at 10 nm for both excitation and emission.
Background: Polarisation of emitted light reports the rotation of a fluorescent probe.

In data set [13] the target is T3, Bcl-xL(ΔC) F146L (Homo sapiens, UniProt Q07817, F146L).
T3 construct: inferred from pET22b(+) NdeI/XhoI cloning and nickel-NTA purification) (C); made in house; host or cells: Escherichia coli BL21(DE3) carrying pUB520
Kind of data set: Fluorescence anisotropy binding. As to the method:
as §4, §5

Data set [14] addresses T4, Bcl-xL(ΔC) A142L (Homo sapiens, UniProt Q07817, A142L).
T4 construct: inferred from pET22b(+) NdeI/XhoI cloning and nickel-NTA purification) (C); made in house; host or cells: Escherichia coli BL21(DE3) carrying pUB520
In words: Fluorescence anisotropy binding. As to the method:
as §4, §5

For data set [15], the system named is TAMH vector-only control cells. Kind of data set: STS toxicity, Alamar Blue viability. It is filed as cell-based, murine. As to conditions: 24 h treatment. As to the method:
as §3

T1 sequence (Q07817 1-211 limits assumed, stated change not applied): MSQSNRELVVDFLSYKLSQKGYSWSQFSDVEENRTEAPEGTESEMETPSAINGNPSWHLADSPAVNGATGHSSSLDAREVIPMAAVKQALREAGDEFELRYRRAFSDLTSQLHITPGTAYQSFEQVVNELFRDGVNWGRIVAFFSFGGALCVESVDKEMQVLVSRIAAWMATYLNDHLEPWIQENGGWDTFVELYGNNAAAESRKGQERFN
T3 sequence (Q07817 1-211 F146L limits assumed): as the sequence (Q07817 1-211 limits assumed, stated change not applied) above, with F146L counted along it
T2 sequence (Q07817 1-211 F97W limits assumed): as the sequence (Q07817 1-211 limits assumed, stated change not applied) above, with F97W counted along it
T4 sequence (Q07817 1-211 A142L limits assumed): as the sequence (Q07817 1-211 limits assumed, stated change not applied) above, with A142L counted along it

2-OMe antimycin A5: in data set [1], the “activity (GI50) relative to 2-OMe antimycin A1, A2 and A3” value is “approximately ⅓”.

Consider `CCCCCC[C@H]1C(=O)O[C@H](C)[C@H](NC(=O)c2cccc(NC=O)c2OC)C(=O)O[C@@H](C)[C@@H]1OC(=O)CC(C)C` [2-OMeAA1, 2-OMe antimycin A1], for which, in data set [2], the “combined killing with etoposide or melphalan” value is “Supra-additive killing”. For the same molecule, the “histologic examination of normal tissues” value in data set [3] (10 mg/kg) is listed as “No cellular injury or inflammation”. In data set [3] (schedule of 3 intravenous doses on alternate days), this molecule showed an LD50 dose of 20 mg/kg. In addition, the “mice survived without apparent toxicity” value in data set [3] (three intravenous doses at 10 mg/kg on alternate days) is reported as 6/6. Moreover, the “reformation of antimycin A1 in plasma” value in [4] is recorded as “have not demonstrated reformation of antimycin A1”. Also, in [5] (10 mg/kg), the “adverse effects in treated mice” value is on record as “No adverse effects”. The “average reduction of serum levels of human light chain” value in data set [5] (10 mg/kg i.v., after the third injection) turned out to be 87%. In addition, the “mice with regression of tumor nodules, second round” value in data set [5] (10 mg/kg on alternate days, days 26 to 31) is reported as “six of six”. In addition, in [5] (24 and 48 h after a single 10 mg/kg intravenous treatment), the “apoptosis in tumor sections” value is given as “widespread apoptosis”. Moreover, the “mice with tumor regression during treatment” value in data set [5] (three i.v. doses of 10 mg/kg on alternate days from day 6) is on record as “Five of six”. Further, the “effect on Bcl-xL pore-forming activity (FIG. 3A)” value in data set [6] is on record as “inhibited”.

Consider `CCCCCC[C@H]1C(=O)O[C@H](C)[C@H](NC(=O)c2cccc(NC=O)c2O)C(=O)O[C@@H](C)[C@@H]1OC(=O)CC(C)C` [AA1, antimycin A1], for which the “sensitivity of mutant cells to antimycin A1” value in data set [7] and in [8] was “completely insensitive” in each case. Further, the LD50 in data set [7] is >10 µM; in data set [8], >10 µM; in data set [9], 5.12 ± 0.94^2 μM; in [9] (listed as antimycin A1) it was 5.12 ± 0.9 µM; in data set [10], 1.72 ± 0.34^2 μM; in data set [10] (listed as antimycin A1) it was 1.72 ± 0.3 µM. Further, the LD50 in data set [11] is 0.47 ± 0.07 µM; in data set [11] (listed as antimycin A1), 0.47 µM. Also, the results for the “fold increase in Kd of AA1 binding compared with Bcl-xL wt(ΔC)” value in data set [12] and in data set [14] were 8 fold and 20 fold, respectively. Also, the “fold decrease in AA1 affinity” value in data set [13] is recorded as ~10 fold. Moreover, the “effect on Bcl-xL pore-forming activity (FIG. 3A)” value in data set [6] is “inhibited”.

Consider `CN[C@@H]1C[C@H]2O[C@@](C)([C@@H]1OC)n1c3ccccc3c3c4c(c5c6ccccc6n2c5c31)C(=O)NC4` [STS, staurosporine], for which the LD50 was 0.49 ± 0.11 µM in data set [7]; 0.38 ± 0.04 µM in data set [8]; 0.34 ± 0.10 µM in data set [9]; 0.52 ± 0.12 µM in data set [10]; 0.58 ± 0.1 µM and 0.58 ± 0.14 µM in data set [11]; 0.11 ± 0.01 µM in [15].
